Measurements taken from paper PMC10999085, “Synthesis, anticancer evaluation, molecular docking and ADME study of novel pyrido[4ʹ,3ʹ:3,4]pyrazolo[1,5-a]pyrimidines as potential tropomyosin receptor kinase A (TrKA) inhibitors” (BMC Chemistry, 2024).
≈ marks a conversion by molar mass, not a printed value. Entries after “also recorded” stand apart in the source; their conditions may differ.

How the values were obtained:
HepG2 cell line = test: MTT assay, HepG2 cell line; format: cell-based, human; conditions: for Cytotoxicity at 5 µg/l: HepG2, 5 µg/l; for Cytotoxicity at 5 µg/l / Cytotoxicity at 10 µg/l / Cytotoxicity at 20 µg/l: MTT, 24 hr treatment, in % (unit assumed); for Cytotoxicity at 10 µg/l: HepG2, 10 µg/l; for Cytotoxicity at 20 µg/l: HepG2, 20 µg/l; for IC50: Homo sapiens, HepG2, MTT, read-out: IC50 (drug concentration that inhibited 50% of cell proliferation)
Procedure, shortened: (§1)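 Cells in RPMI-1640 with 10% FBS were seeded at 1.0x10^4 cells/well and cultured 48 h, then exposed to compound for 24 hr. Viability was measured by MTT reduction (4 hr), with formazan dissolved in DMSO and read at 570 nm, relative to untreated cells. Values are means of three independent triplicate experiments.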

HCT-116 cell line = test: MTT assay, HCT-116 cell line; format: cell-based, human; conditions: for Cytotoxicity at 5 µg/l: HCT116, 5 µg/l; for Cytotoxicity at 5 µg/l / Cytotoxicity at 10 µg/l / Cytotoxicity at 20 µg/l: MTT, 24 hr treatment, in % (unit assumed); for Cytotoxicity at 10 µg/l: HCT116, 10 µg/l; for Cytotoxicity at 20 µg/l: HCT116, 20 µg/l; for IC50: Homo sapiens, HCT-116, HCT116, MTT, read-out: IC50 (drug concentration that inhibited 50% of cell proliferation)
Procedure, shortened: as §1

[1] = target: T1, Tropomyosin receptor kinase A (TrKA) (Homo sapiens, UniProt P04629); test: Tropomyosin receptor kinase A (TrKA) inhibitory assay (Kinase-Glo MAX kit); format: biochemical; conditions: in vitro kinase assay, recombinant TrkA
T1 construct: purchased
Text: The TrkA assay Kit is designed to measure TrkA activity for screening and profiling applications using Kinase-Glo® MAX as a detection reagent. The TrkA Assay Kit comes in a convenient 96-well format, with enough purified recombinant TrkA enzyme, TrkA substrate, ATP and kinase assay buffer for 100 enzyme reactions. The method was discussed in details in the ESI.
The TrkA assay Kit is designed to measure TrkA activity for screening and profiling applications using Kinase-Glo® MAX as a detection reagent. The TrkA Assay Kit comes in a convenient 96-well format, with enough purified recombinant TrkA enzyme, TrkA substrate, ATP and kinase assay buffer for 100 enzyme reactions.
The assay protocol: all samples and controls should be tested in duplicate. Dissolve 5x Kinase Assay Buffer 1, ATP, and PTK Substrate Poly (Glu:Tyr 4:1) (10 mg/ml). 2). The master mixture (25 μl per well) was prepared by N wells x (6 μl 5x Kinase Assay Buffer 1 + 1 μl ATP (500 μM) + 1 μl PTK Substrate Poly (Glu:Tyr 4:1) (10mg/ml) + 17 μl water). Add 5 μl of Inhibitor solution of each well labeled as “Test Inhibitor”. For the “Positive Control" and “Blank”, add 5 μl of the same solution without inhibitor (Inhibitor buffer). Prepare 3 ml of 1x Kinase assay buffer 1 by mixing 600 μl of 5x Kinase assay buffer 1 with 2400 μl water 3 ml of 1x Kinase assay buffer is sufficient for 100 reactions. To the wells designated as "Blank", add 20 μl of 1x Kinase assay buffer 1and thaw TrkA enzyme on ice. Upon first thaw, briefly spin tube containing enzyme to recover full content of the tube. Calculate the amount of TrkA required for the assay and dilute enzyme to 5 ng/μl with 1x Kinase assay buffer. Store remaining undiluted enzyme in aliquots at -80°C. Then initiate reaction by adding 20 μl of diluted TrkA enzyme to the wells designated “Positive Control” and "Test Inhibitor Control". Incubate at 30°C for 45minutes and thaw Kinase-Glo Max reagent. After the 45 minute reaction, add 50 μl of Kinase-Glo Max reagent to each well. Cover plate with aluminum foil and incubate the plate at room temperature for 15 minutes. Immediately read sample in a luminometer or microtiter-plate capable of reading chemiluminescence. “Blank” value is subtracted from all readings.

HepG2 cells = test: In-vitro cell cycle analysis (PI flow cytometry); format: cell-based, human; conditions: for Cell cycle comment (phase of arrest): HepG2; for DNA content %G0-G1 / DNA content %G2/M / DNA content %Pre-G1 / DNA content %S: HepG2, compound at its IC50; for increase of the proportion of cells in the G2/M phase: HepG2, versus control
Method: HepG-2 cells are pre-cultured in 25 cm^2 cell culture flask. RPMI-1640 medium was used. Tested compounds 7b, 9c, 15b, 16a and 16c were used in the cell treatment at their IC50 by dissolving them in the required medium separately. The procedure was discussed in details in the ESI.
For cell cycle analysis, stained DNA from HepG2 cancer cells was treated with compounds 7b, 15b, 16a and 16c that induce cancer cell death by inhibiting TrKA. From the results in Table 5, it can be seen that the proportion of cells at phase in the pre-G1 of compounds 7b, 15b, 16a and 16c increased the proportion of cells at phase in the G2/M by about 4, 4, 2.5 and 3 folds, respectively.
HepG-2 cells were pre-cultured in 25 cm^2 cell culture flasks; RPMI-1640 medium was used. Tested compounds 7b, 15b, 16a and 16c were dissolved separately in the required medium and used in the cell treatment at their IC50. After overnight treatment the cells were collected and fixed gently with 70% (v/v) ethanol in PBS, incubated overnight at 4 °C, and resuspended in PBS containing 40 µg/ml propidium iodide (PI), 0.1 mg/ml RNase and 0.1% (v/v) Triton X-100 in the dark room at after 30 min at 37 °C, the cell cycle analysis was performed using a flow cytometer, equipped with an argon ion laser at a wavelength of 488 nm (Becton-Dickinson, San Josa, CA, USA) and the percentage of cells at G1, S and G2/M was also calculated.

T1 sequence (P04629 33-796): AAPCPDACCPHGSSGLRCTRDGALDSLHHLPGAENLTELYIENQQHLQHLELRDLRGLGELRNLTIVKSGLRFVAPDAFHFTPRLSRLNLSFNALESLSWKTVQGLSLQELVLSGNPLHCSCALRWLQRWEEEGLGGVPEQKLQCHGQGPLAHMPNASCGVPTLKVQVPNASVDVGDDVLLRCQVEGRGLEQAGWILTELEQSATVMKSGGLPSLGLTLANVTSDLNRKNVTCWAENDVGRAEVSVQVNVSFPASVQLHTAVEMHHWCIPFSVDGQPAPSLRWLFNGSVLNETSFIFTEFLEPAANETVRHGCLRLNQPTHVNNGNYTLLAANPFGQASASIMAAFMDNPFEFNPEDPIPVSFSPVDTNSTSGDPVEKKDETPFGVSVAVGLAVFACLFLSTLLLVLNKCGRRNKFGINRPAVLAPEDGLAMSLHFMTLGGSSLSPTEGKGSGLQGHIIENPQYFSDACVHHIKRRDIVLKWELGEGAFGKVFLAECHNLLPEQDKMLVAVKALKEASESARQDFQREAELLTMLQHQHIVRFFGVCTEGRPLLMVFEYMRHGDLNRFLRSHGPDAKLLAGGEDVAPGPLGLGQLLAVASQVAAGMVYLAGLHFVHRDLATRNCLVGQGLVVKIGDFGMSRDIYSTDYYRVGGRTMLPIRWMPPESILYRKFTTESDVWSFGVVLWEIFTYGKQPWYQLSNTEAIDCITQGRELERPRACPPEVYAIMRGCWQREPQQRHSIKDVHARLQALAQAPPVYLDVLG

SMILES | Cytotoxicity at 5 µg/l (HepG2 cell line) | Cytotoxicity at 10 µg/l (HepG2 cell line) | Cytotoxicity at 20 µg/l (HepG2 cell line) | IC50 (HepG2 cell line) [ng/mL] | Cytotoxicity at 5 µg/l (HCT-116 cell line) | Cytotoxicity at 10 µg/l (HCT-116 cell line) | Cytotoxicity at 20 µg/l (HCT-116 cell line) | IC50 (HCT-116 cell line) [ng/mL] | IC50 [1] [nM] | Cell cycle comment (phase of arrest) (HepG2 cells) | DNA content %G0-G1 (HepG2 cells) [%] | DNA content %G2/M (HepG2 cells) [%] | DNA content %Pre-G1 (HepG2 cells) [%] | DNA content %S (HepG2 cells) [%] | increase of the proportion of cells in the G2/M phase (HepG2 cells)
Cc1cc(O)n2nc3c(c2n1)C(=O)NC(=O)C3=NNc1ccccc1 [Compound 16a, 4-Hydroxy-2-methyl-7-(2-phenylhydrazono)pyrido[4ʹ,3ʹ:3,4]pyrazolo[1,5-a]pyrimid-ine-8,10(7H,9H)-dione] | 54.39 | 66.36 | 72.80 | 3.56 (≈ 0.0106 µM) | 54.16 | 74.90 | 87.26 | 4.37 (≈ 0.013 µM) | 214 | arrest in cell cycle at the G2/M phase; also recorded: cell growth arrest@G2/M | 42.11 | 21.74 | 15.33 | 36.15 | ~2.5 folds
COc1ccc(C=C2C(=O)NC(=O)c3c2nn2c(C)cc(C)nc32)cc1 [Compound 7b] | 55.11 | 69.08 | 85.16 | 4.25 (≈ 0.0122 µM) | 67.87 | 70.12 | 91.94 | 2.49 (≈ 0.00714 µM) | 184 | arrested in the cell cycle at G2/M phase; also recorded: arrest in cell cycle at the G2/M phase; also recorded: cell growth arrest@G2/M | 38.42 | 34.70 | 24.89 | 26.88 | about 4 folds
COc1ccc(NN=C2C(=O)NC(=O)c3c2nn2c(O)cc(C)nc32)cc1 [Compound 16c, 4-Hydroxy-7-(2-(4-methoxyphenyl)hydrazono)-2-methylpyrido[4ʹ,3ʹ:3,4]pyrazolo[1,5-a]pyrimidine-8,10(7H,9H)-dione] | 59.17 | 70.57 | 84.32 | 3.43 (≈ 0.00935 µM) | 55.98 | 78.34 | 99.23 | 4.5 (≈ 0.0123 µM) | 128 | arrest in cell cycle at the G2/M phase; also recorded: cell growth arrest@G2/M | 41.61 | 26.45 | 12.07 | 31.94 | ~3 folds
